This is an account of results in patent US12636290B2, “BET inhibitors for modulating DUX4 expression in FSHD” (Saint Louis University, priority 2018, dated 2026).

Read-outs that look alike come from different tables or passages of the source.

Data set [1] deals with p38α (Homo sapiens, UniProt Q16539). Particulars: p38α versus p38β; cited from earlier work.
For data set [2] the following is noted: increase compared with a placebo; used to treat chronic obstructive pulmonary disease; cited from earlier work.
Data set [3] concerns DUX4 expression (surrogate marker MBD3L2). Briefly: Screening: qPCR analysis of DUX4 target gene MBD3L2 in differentiating MB200 FSHD2 muscle cells. In kind it is cell-based. Particulars: Homo sapiens, 40 hours, DUX4 expression inferred from surrogate marker MBD3L2 expression (qPCR, normalized to RPL30). An outline of the steps: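 Immortalized FSHD2 MB200 myoblasts differentiated in HS/IT or KSR media, exposed to BET inhibitors at several concentrations for 40 hours. MBD3L2 mRNA, as DUX4 surrogate, measured by multiplex TaqMan qPCR normalized to RPL30; expressed relative to untreated cells set to one.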

Chain of p38α (Q16539 whole entry): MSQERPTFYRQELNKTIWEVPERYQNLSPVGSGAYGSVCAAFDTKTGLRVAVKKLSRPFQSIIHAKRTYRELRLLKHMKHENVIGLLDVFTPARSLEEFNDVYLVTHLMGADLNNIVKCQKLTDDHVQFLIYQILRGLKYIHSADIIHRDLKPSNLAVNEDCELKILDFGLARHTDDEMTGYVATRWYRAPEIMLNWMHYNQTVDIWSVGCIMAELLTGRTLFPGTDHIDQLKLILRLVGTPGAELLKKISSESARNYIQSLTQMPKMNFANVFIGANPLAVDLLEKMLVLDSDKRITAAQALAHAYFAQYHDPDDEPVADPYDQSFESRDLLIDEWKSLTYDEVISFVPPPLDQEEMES

Consider `O=c1ncn2nc(Sc3ccc(F)cc3F)ccc2c1-c1c(Cl)cccc1Cl` [VX-745], for which the “selective over p38β” value in data set [1] is given as “p38α, 22X selective over p38β”. In the case of `COc1ccc(CC(C)NCC(O)c2ccc(O)c(NC=O)c2)cc1` (centres unmarked) [formoterol], in data set [2], the “risk of respiratory death” value is on record as “more than two-fold”. As for `CC(C)(C)NCC(O)c1ccc(O)c(CO)c1` (centres unmarked) [salbutamol], the “risk of respiratory death” value in data set [2] was “more than two-fold”. Usually IC50 stands for the concentration needed to halve the response being measured. For the compound `Cn1cc(-c2ccc(N3CCC(c4ccc(OCCn5cncn5)cc4)CC3)nc2)c2cc[nH]c2c1=O` [SLU-2119, 4-{6-[4-(4-(2-(1H-1,2,4-triazol-1-yl)ethoxy)phenyl)piperidin-1-yl]pyridin-3-yl}-6-methyl-1H-pyrrolo[2,3-c]pyridin-7(6H)-one], the IC50 in data set [3] (read-out: DUX4* MT FSHD2: IC50) and in data set [3] (read-out: DUX4* MT FSHD2 IC50) was 130 nM in each case. On to `Cn1cc(-c2ccc(N3CCC(c4ccc(OCCN5CCCCC5)cc4)CC3)nc2)c2cc[nH]c2c1=O` [SLU-2116, 6-methyl-4-{6-[4-(4-(2-(piperidin-1-yl)ethoxy)phenyl)piperidin-1-yl]pyridin-3-yl}-1H-pyrrolo[2,3-c]pyridin-7(6H)-one], for which the IC50 in data set [3] (read-out: DUX4* MT FSHD2: IC50) and in data set [3] (read-out: DUX4* MT FSHD2 IC50) was 270 nM in each case. `C=CCn1cc(-c2ccc3nc(-c4ccc(OCCN5CCN(C)C(=O)[C@H]5C)cc4)ccc3c2)c2cc[nH]c2c1=O` [SLU-2293, (R)-6-allyl-4-{2-[4-(2-(2,4-dimethyl-3-oxopiperazin-1-yl)ethoxy)phenyl]quinolin-6-yl}-1H-pyrrolo[2,3-c]pyridin-7(6H)-one]: the IC50 in data set [3] (read-out: DUX4* MT FSHD2: IC50) and in data set [3] (read-out: DUX4* MT FSHD2 IC50) was 18 nM each time. Turning to `C[C@@H]1C(=O)N(C)CCN1CCCOc1ccc2cc(-c3cn(C)c(=O)c4[nH]ccc34)ccc2n1` [SLU-2347, (R)-4-{2-[3-(2,4-dimethyl-3-oxopiperazin-1-yl)propoxy]quinolin-6-yl}-6-methyl-1H-pyrrolo[2,3-c]pyridin-7(6H)-one], the IC50 in data set [3] (read-out: DUX4* MT FSHD2: IC50) and in data set [3] (read-out: DUX4* MT FSHD2 IC50) was 85 nM in each case.

For `C[C@@H]1C(=O)N(C)CCN1CCOc1ccc2nc(-c3ccc(-c4cn(C)c(=O)c5[nH]ccc45)cc3)ccc2c1` [SLU-2211, (R)-4-{4-[6-(2-(2,4-dimethyl-3-oxopiperazin-1-yl)ethoxy)quinolin-2-yl]phenyl}-6-methyl-1H-pyrrolo[2,3-c]pyridin-7(6H)-one], the IC50 in data set [3] (read-out: DUX4* MT FSHD2: IC50) and in data set [3] (read-out: DUX4* MT FSHD2 IC50) was 62 nM each time. As to `C[C@@H]1C(=O)N(C)CCN1CCOc1ccc(C2CCN(c3ccc(-c4cn(C)c(=O)c5[nH]ccc45)cc3)CC2)cc1` [SLU-2212, (R)-4-{4-[4-(4-(2-(2,4-dimethyl-3-oxopiperazin-1-yl)ethoxy)phenyl)piperidin-1-yl]phenyl}-6-methyl-1H-pyrrolo[2,3-c]pyridin-7(6H)-one], the IC50 in data set [3] (read-out: DUX4* MT FSHD2: IC50) and in data set [3] (read-out: DUX4* MT FSHD2 IC50) was 86 nM throughout. As to `C[C@@H]1C(=O)N(C)CCN1CCOc1ccc(-c2ccc3nc(-c4cn(C)c(=O)c5[nH]ccc45)ccc3c2)cc1` [SLU-2112, (R)-4-{6-[4-(2-(2,4-dimethyl-3-oxopiperazin-1-yl)ethoxy)phenyl]quinolin-2-yl}-6-methyl-1H-pyrrolo[2,3-c]pyridin-7(6H)-one], the 50% inhibitory concentration (IC50) in data set [3] (read-out: DUX4* MT FSHD2: IC50) and in data set [3] (read-out: DUX4* MT FSHD2 IC50) was 40 nM throughout.

Regarding `NC(=O)c1ccc(N(C(N)=O)c2c(F)cccc2F)nc1-c1ccc(F)cc1F` [VX-702], the “selective over p38β” value in data set [1] is on record as “p38α, 14X selective over p38β”.

Take `C[C@@H]1CCC[C@H](C)N1CCOc1ccc(-c2ccc3nc(-c4cn(C)c(=O)c5[nH]ccc45)ccc3c2)cc1` [SLU-2279, 4-{6-[4-(2-((2R,6S)-2,6-dimethylpiperidin-1-yl)ethoxy)phenyl]quinolin-2-yl}-6-methyl-1H-pyrrolo[2,3-c]pyridin-7(6H)-one]: the IC50 in data set [3] (read-out: DUX4* MT FSHD2: IC50) and in data set [3] (read-out: DUX4* MT FSHD2 IC50) was 420 nM throughout. On to `CC(C)NCC(O)c1cc(O)cc(O)c1` (centres unmarked) [orciprenaline], for which the “risk of respiratory death” value in data set [2] is “more than two-fold”. Consider `C[C@@H]1C(=O)N(C)CCN1CCOc1ccc(-c2ccc3nc(-c4cn(C(F)F)c(=O)c5[nH]ccc45)ccc3c2)cc1` [SLU-2325, (R)-6-(difluoromethyl)-4-{6-[4-(2-(2,4-dimethyl-3-oxopiperazin-1-yl)ethoxy)phenyl]quinolin-2-yl}-1H-pyrrolo[2,3-c]pyridin-7(6H)-one], for which the IC50 in data set [3] (read-out: DUX4* MT FSHD2: IC50) and in data set [3] (read-out: DUX4* MT FSHD2 IC50) was 290 nM throughout. For the compound `CN1CCCN(CCOc2ccc(-c3ccc4cc(-c5cn(C)c(=O)c6[nH]ccc56)ccc4n3)cc2)CC1=O` [SLU-2300, 6-methyl-4-{2-[4-(2-(4-methyl-3-oxo-1,4-diazepan-1-yl)ethoxy)phenyl]quinolin-6-yl}-1H-pyrrolo[2,3-c]pyridin-7(6H)-one], the IC50 in data set [3] (read-out: DUX4* MT FSHD2: IC50) and in data set [3] (read-out: DUX4* MT FSHD2 IC50) was 49 nM each time. As to `C[C@@H]1CN(C)C(=O)CN1CCOc1ccc(-c2ccc3cc(-c4cn(C)c(=O)c5[nH]ccc45)ccc3n2)cc1` [SLU-2286, (R)-4-{2-[4-(2-(2,4-dimethyl-5-oxopiperazin-1-yl)ethoxy)phenyl]quinolin-6-yl}-6-methyl-1H-pyrrolo[2,3-c]pyridin-7(6H)-one], the IC50 in data set [3] (read-out: DUX4* MT FSHD2: IC50) and in data set [3] (read-out: DUX4* MT FSHD2 IC50) was 63 nM each time.

As for `CCn1cc(-c2ccc3nc(-c4ccc(OCCN5CCN(C)C(=O)[C@H]5C)cc4)ccc3c2)c2cc[nH]c2c1=O` [SLU-2296, (R)-4-{2-[4-(2-(2,4-dimethyl-3-oxopiperazin-1-yl)ethoxy)phenyl]quinolin-6-yl}-6-ethyl-1H-pyrrolo[2,3-c]pyridin-7(6H)-one], the IC50 in data set [3] (read-out: DUX4* MT FSHD2: IC50) and in data set [3] (read-out: DUX4* MT FSHD2 IC50) was 58 nM in each case. Regarding `C[C@@H]1C(=O)N(C)CCN1CCOc1ccc(-c2ccc3cc(-c4c[nH]c(=O)c5[nH]ccc45)ccc3n2)cc1` [SLU-2302, (R)-4-{2-[4-(2-(2,4-dimethyl-3-oxopiperazin-1-yl)ethoxy)phenyl]quinolin-6-yl}-1H-pyrrolo[2,3-c]pyridin-7(6H)-one], the IC50 in data set [3] (read-out: DUX4* MT FSHD2: IC50) and in data set [3] (read-out: DUX4* MT FSHD2 IC50) was 1800 nM each time.

For `C[C@@H]1C(=O)N(C)CCN1CCOc1ccc(-c2cc3ccc(-c4cn(C)c(=O)c5[nH]ccc45)cc3cn2)cc1` [SLU-2217, (R)-4-{3-[4-(2-(2,4-dimethyl-3-oxopiperazin-1-yl)ethoxy)phenyl]isoquinolin-7-yl}-6-methyl-1H-pyrrolo[2,3-c]pyridin-7(6H)-one], the IC50 in data set [3] (read-out: DUX4* MT FSHD2: IC50) and in data set [3] (read-out: DUX4* MT FSHD2 IC50) was 22 nM in each case. `CC(C)CCOc1ccc(C2CCN(c3ccc(-c4cn(C)c(=O)c5[nH]ccc45)cn3)CC2)cc1` [SLU-2124, 4-{6-[4-(4-(isopentyloxy)phenyl)piperidin-1-yl]pyridin-3-yl}-6-methyl-1H-pyrrolo[2,3-c]pyridin-7(6H)-one]: the IC50 in data set [3] (read-out: DUX4* MT FSHD2: IC50) and in data set [3] (read-out: DUX4* MT FSHD2 IC50) was 1300 nM throughout. In the case of `C[C@@H]1C(=O)N(C)CCN1CCOc1cccc(-c2ccc3cc(-c4cn(C)c(=O)c5[nH]ccc45)ccc3n2)c1` [SLU-2301, (R)-4-{2-[3-(2-(2,4-dimethyl-3-oxopiperazin-1-yl)ethoxy)phenyl]quinolin-6-yl}-6-methyl-1H-pyrrolo[2,3-c]pyridin-7(6H)-one], the 50% inhibitory concentration (IC50) in data set [3] (read-out: DUX4* MT FSHD2: IC50) and in data set [3] (read-out: DUX4* MT FSHD2 IC50) was 13 nM each time.

With `CC(=O)N1C[C@@H](C)N(CCOc2ccc(-c3ccc4nc(-c5cn(C)c(=O)c6[nH]ccc56)ccc4c3)cc2)[C@@H](C)C1` [SLU-2104, 4-{6-[4-(2-((2R,6S)-4-acetyl-2,6-dimethylpiperazin-1-yl)ethoxy)phenyl]quinolin-2-yl}-6-methyl-1H-pyrrolo[2,3-c]pyridin-7(6H)-one], the IC50 in data set [3] (read-out: DUX4* MT FSHD2: IC50) and in data set [3] (read-out: DUX4* MT FSHD2 IC50) was 43 nM throughout. In the case of `Cn1cc(-c2ccc3cc(-c4ccc(OCCO)nc4)ccc3n2)c2cc[nH]c2c1=O` [SLU-2232, 4-{6-[6-(2-hydroxyethoxy)pyridin-3-yl]quinolin-2-yl}-6-methyl-1H-pyrrolo[2,3-c]pyridin-7(6H)-one], the IC50 in data set [3] (read-out: DUX4* MT FSHD2: IC50) and in data set [3] (read-out: DUX4* MT FSHD2 IC50) was 97 nM in each case. On to `CC(=O)N1C[C@@H](C)N(CCOc2ccc(C3CCN(c4ccc(-c5cn(C)c(=O)c6[nH]ccc56)cn4)CC3)cc2)[C@@H](C)C1` [SLU-2090, 4-{6-[4-(4-(2-((2R,6S)-4-acetyl-2,6-dimethylpiperazin-1-yl)ethoxy)phenyl)piperidin-1-yl]pyridin-3-yl}-6-methyl-1H-pyrrolo[2,3-c]pyridin-7(6H)-one], for which the IC50 in data set [3] (read-out: DUX4* MT FSHD2: IC50) and in data set [3] (read-out: DUX4* MT FSHD2 IC50) was 43 nM in each case. Consider `Cn1cc(-c2ccc(N3CCC4(CCN(C(=O)CO)C4)CC3)nc2)c2cc[nH]c2c1=O` [SLU-2127], for which the IC50 in data set [3] (read-out: DUX4* MT FSHD2: IC50) and in data set [3] (read-out: DUX4* MT FSHD2 IC50) was 37 nM throughout.

On to `CN1CCN(CCOc2ccc(-c3ccc4cc(-c5cn(C)c(=O)c6[nH]ccc56)ccc4n3)cc2)CCC1=O` [SLU-2277, 6-methyl-4-{2-[4-(2-(4-methyl-5-oxo-1,4-diazepan-1-yl)ethoxy)phenyl]quinolin-6-yl}-1,6-dihydro-7H-pyrrolo[2,3-c]pyridin-7-one], for which the IC50 in data set [3] (read-out: DUX4* MT FSHD2: IC50) and in data set [3] (read-out: DUX4* MT FSHD2 IC50) was 20 nM in each case.
